# Source: patent publication US20220400669A1, “COMPOUNDS AND METHODS FOR PROMOTING PLANT GROWTH” (King Abdullah University of Science and Technology, priority 2019, published 2022)
# Columns and labels:
# Type in all cases: in vivo
# [1] = system: Gigaspora margarita spores; experiment: Gigaspora margarita spores germination; details: 5 μM and 50 nM, 3 and 7 days
# Method: Spores were sterilized in a solution of Streptomycine sulphate (0.03% W/V) and Chloramine T (3% W/V) and germinated in 200 μl of MZ3 and MZ5 at 5 μM or 50 nM, GR24 10 nM or a solution of Water/Acetone (12.5 μl acetone in 25 ml water). For each treatments 96 sterilized spores were placed individually in the wells of a multi-well plate and treated with freshly prepared solutions at the beginning of the experiment and after 3 days. Spores were germinated in the dark at 30° C. and the germination rate was evaluated after 3 days and 7 days.
# [2] = system: zas mutant and Nipponbare wild-type rice seedlings; experiment: Hydroponic rice growth, zas mutant rescue and tillering; details: hydroponic system, 2.5 μM
# Method: For rescuing zas mutant phenotypes and investigating the effect of the compounds MZ3 and MZ5 on different genotypes, one week-old seedlings were grown hydroponically in half-strength modified Hoagland nutrient solution containing K2HPO4.2H2O (+Pi), 2.5 μM and 5 μM zaxinone or compounds (MZ2-MZ5) (dissolved in 0.1% acetone) or the corresponding volume of the solvent (control) for 21 days (i.e. 3 weeks). The solution was changed every other day, adding the chemical at each renewal.
# [3] = system: Striga hermonthica seeds; experiment: Striga hermonthica seed germination bioassay with root exudates of treated rice seedlings
# Method: For SL analysis, one-week-old seedlings were transferred into 50 ml falcon tubes (two seedlings per tube), containing half-strength Hoagland nutrient solution with K2HPO4.2H2O (+Pi), and grown in the biochamber for one week. Rice seedlings were then subjected to phosphate deficiency (−Pi) for another one week. On the day of root exudates collection, rice seedlings were first treated with 5 μM Zaxinone, or MZ compounds for 6 h, and then root exudates and root tissues were collected from each tube for LC-MS/MS analysis and Striga bioassays. Striga hermonthica seed germination bioassays were conducted by following the procedure as described previously. About 50-100 sterilized Striga seeds were spread on a glass fiber filter paper disc. Then 12 discs with Striga seeds were put on a sterilized filter paper, moistened with 3 ml sterilized water in a 90 mm petri plate. The plates were sealed with parafilm and cover with aluminum foil. All the plates were kept at 30° C. for 10 days for pre-conditioning. On 11th day, six dry discs with pre-conditioned seeds were selected and put in a 90 mm petri-dish. A filter paper ring moistened with 0.9 ml sterile MilliQ water was placed in the plate. The root exudates collected from Zaxinone or MZ compounds treated rice seedlings was applied at 50 μl on each six disc. Sterile MilliQ water and standard SL analog GR24 (2.5 μM) were included as a negative and positive control, respectively. After application, Striga seeds were incubated in dark at 30° C. for 24 hours. Germination (seeds with radicle emerging through seed coat) was scored under a binocular microscope, and germination rate (%) was calculated.
# [4] = system: Striga hermonthica; experiment: Striga hermonthica infection of rice in pots; details: 5 μM, rice cv IAC-165 in pots with Striga infested soil (FIG. 13)
# Method: Pots experiment was conducted and slightly adapted from the protocol as described previously About 20 mg (ca 8000) Striga seeds were thoroughly mixed in 1.5 L sand and soil mixture (1:1) and added in 3 L perforated plastic pot containing 0.5 L clean soil in the bottom. The pots were kept in greenhouse-controlled conditions at 35° C. under moisture to preconditioned Striga seeds for 10 days. On 11th day, one week old five rice seedlings (cv IAC165) were planted in each pot. After three days of rice planting, each pot was first irrigated with 250 ml phosphorus deficient Hoaglands nutrient solution and after four hours of irrigation 25 ml formulated MZ3, MZ5 and Zaxinone (100 μM) were sprayed. Next day, each pot was again supplied with 250 ml nutrient solution to make the final concentration of each compound to 5 μM and to move the compound to rice seedlings. Pots with and without Striga seeds were kept as the negative and positive control. Each compound was applied twice in a week up to four weeks. The rice plants were grown under normal growth condition (30° C., 70% RH) for eight weeks. The number of emerged Striga plants in each pot were counted.
# [5] = system: strigolactones (4-deoxyorobanchol, orobanchol) release; experiment: LC-MS/MS quantification of SLs in rice root exudates; details: 5 μM
# Method: For SL analysis, one-week-old seedlings were transferred into 50 ml falcon tubes (two seedlings per tube), containing half-strength Hoagland nutrient solution with K2HPO4.2H2O (+Pi), and grown in the biochamber for one week. Rice seedlings were then subjected to phosphate deficiency (−Pi) for another one week. On the day of root exudates collection, rice seedlings were first treated with 5 μM Zaxinone, or MZ compounds for 6 h, and then root exudates and root tissues were collected from each tube for LC-MS/MS analysis and Striga bioassays.
# For the quantification of SLs in rice root exudates, 50 ml of root exudates spiked with 0.672 ng of D6-5-deoxystrigol, was brought on a 500 mg/3 ml fast SPE C18 column preconditioned with 6 ml of methanol and 3 ml of water. After washing with 3 ml of water, SLs were eluted with 5 ml of acetone. The 4-deoxyorobanchol fraction (acetone-water solution) was concentrated to SL aqueous solution (˜500 μl), followed by the extraction with 1 ml of ethyl acetate. 750 μl of SLs enriched organic phase was then transferred to 1.5 ml tube and evaporated to dryness under vacuum. The dried extract was dissolved in 100 μl of acetonitrile:water (25:75, v:v) and filtered through a 0.22 µm filter for LC-MS/MS analysis.
smiles,measurement,setting,value
"COc1ccc(Oc2cccc(/C=C/C(C)=O)c2)cc1 [MZ3, (E)-4-(3-(4-methoxyphenoxy)phenyl)but-3-en-2-one]",spore germination rate,[1],no effect
same,root length of wild-type plants relative to zaxinone,[2],more active than zaxinone
same,lowering of Striga seed germinating activity of collected exudates,[3]; exudates of Pi-starved WT rice seedlings exposed to 5 μM for 6 hours (FIG. 10),around 40%
same,decrease of Striga seed germination rate,"[3]; exudates of rice seedlings treated with 5 μM compound, Pi starvation (FIG. 2)",~45%
same,reduction of the number of emerging Striga plants compared to the untreated control,[4],71%
same,Oro content in root exudates,"[5]; Pi-starved WT rice, 6 hours, control 20",5 pgmg-1dry-root-weight
same,4DO content in root exudates,"[5]; Pi-starved WT rice, 6 hours, control 25",10 pgmg-1dry-root-weight
same,effect on 4-deoxyorobanchol relative to Zaxinone,"[5]; roots and root exudates, Pi-starved WT rice, 6 hours",significantly stronger
same,SL level of the root exudate,"[5]; wild-type rice seedlings, Pi-starvation, 6 h, compared with Zaxinone (FIGS. 19, 20A-20B)",obvious effect
same,SL content in zas mutant (high SL phenotype),"[5]; zas mutant rice roots and root exudates, Pi starvation (FIGS. 11A-11B)",strongly inhibited
